Results published in paper PMC5563081, “Modulating Protein-Protein Interactions of the Mitotic Polo-like Kinases to Target Mutant KRAS” (Cell Chemical Biology, 2017).
Like-named read-outs stand apart in the source and are kept apart here.

Key:
[1] = Pharmacokinetic study, oral administration in mice; type: in vivo, mouse
Protocol: Mice were dosed orally with 10mg/kg Poloppin-II, and blood samples were taken from 3 mice per time point, and frozen until all samples were available. Plasma was prepared from each sample and Poloppin-II levels analysed by a pre-established methodology (UHPLC-TOF MS using electrospray ionisation).

[2] = target: T1, NanoLuc-PLK2 fusion protein (Homo sapiens, UniProt Q9NYY3); experiment: NanoLuc thermal shift assay; type: cell-based; details: compound at 100 μM
T1 construct: NanoLuc fused to the N-termini of full-length human PLK1, PLK2, PLK3, PLK4 or p38α MAPK; expressed in transfected cells; host or cells: HeLa, transient, digitonin-permeabilised
T1 sequence (Q9NYY3 whole entry, the tested form may be a part): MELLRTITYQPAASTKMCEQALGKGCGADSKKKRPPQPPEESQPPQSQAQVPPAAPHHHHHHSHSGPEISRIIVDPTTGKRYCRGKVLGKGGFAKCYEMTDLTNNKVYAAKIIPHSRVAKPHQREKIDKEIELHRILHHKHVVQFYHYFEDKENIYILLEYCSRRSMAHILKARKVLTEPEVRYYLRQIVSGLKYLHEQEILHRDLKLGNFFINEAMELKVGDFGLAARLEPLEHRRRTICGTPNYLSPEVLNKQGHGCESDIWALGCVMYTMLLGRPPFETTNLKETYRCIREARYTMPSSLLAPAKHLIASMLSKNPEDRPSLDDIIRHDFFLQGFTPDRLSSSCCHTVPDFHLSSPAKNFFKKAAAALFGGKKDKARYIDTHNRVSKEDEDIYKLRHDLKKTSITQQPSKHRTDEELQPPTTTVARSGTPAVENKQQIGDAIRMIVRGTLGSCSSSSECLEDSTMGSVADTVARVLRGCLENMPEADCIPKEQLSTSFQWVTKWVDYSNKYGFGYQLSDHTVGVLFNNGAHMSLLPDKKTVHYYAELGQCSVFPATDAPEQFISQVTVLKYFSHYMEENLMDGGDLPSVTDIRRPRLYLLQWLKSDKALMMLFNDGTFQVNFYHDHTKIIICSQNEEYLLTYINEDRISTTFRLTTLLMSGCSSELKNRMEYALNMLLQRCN
Protocol: (§1) HeLa cells were transfected with plasmids encoding NanoLuc fused to the N-termini of full-length human PLK1, PLK2, PLK3, PLK4 or p38α MAPK. Twenty-four h after transfection, the thermal stability of the fusion proteins was tested using a modified version of the assay protocol supplied by Promega. Briefly, cells were harvested by tyrpsinisation and centrifugation, counted, and resuspended to 200,000 cells/ml in 3mls of serum-free OptiMEM media. Cells were then permeabilised using with 50ug/ml digitonin in DMSO for 5 min and incubated with test compounds at 100uM, plus protease inhibitor cocktail (Promega G6521), in a final concentration of 5% DMSO for 1 h at 37°C. After incubation, 100 μl/well of cells were aliquoted into a 96-well, thin-walled PCR plate and then heated for 3 minutes using a pre-warmed MJ Tetrad DNA Engine set to run a temperature gradient of 42 to 66°C. The plates were then cooled to room temperature for 10 min, and then 80μl of each sample was transferred to a white-walled 96-well Nunc plate before NanoBRET™ NanoGlo Substrate diluted in Opti-MEM was added. NanoLuc enzyme activity was read out within 10 min using a BMG Clariostar plate reader.

[3] = target: T2, NanoLuc-PLK3 fusion protein (Homo sapiens, UniProt Q9H4B4); experiment: NanoLuc thermal shift assay; type: cell-based; details: compound at 100 μM
T2 construct: NanoLuc fused to the N-termini of full-length human PLK1, PLK2, PLK3, PLK4 or p38α MAPK; expressed in transfected cells; host or cells: HeLa, transient, digitonin-permeabilised
T2 sequence (Q9H4B4 whole entry, the tested form may be a part): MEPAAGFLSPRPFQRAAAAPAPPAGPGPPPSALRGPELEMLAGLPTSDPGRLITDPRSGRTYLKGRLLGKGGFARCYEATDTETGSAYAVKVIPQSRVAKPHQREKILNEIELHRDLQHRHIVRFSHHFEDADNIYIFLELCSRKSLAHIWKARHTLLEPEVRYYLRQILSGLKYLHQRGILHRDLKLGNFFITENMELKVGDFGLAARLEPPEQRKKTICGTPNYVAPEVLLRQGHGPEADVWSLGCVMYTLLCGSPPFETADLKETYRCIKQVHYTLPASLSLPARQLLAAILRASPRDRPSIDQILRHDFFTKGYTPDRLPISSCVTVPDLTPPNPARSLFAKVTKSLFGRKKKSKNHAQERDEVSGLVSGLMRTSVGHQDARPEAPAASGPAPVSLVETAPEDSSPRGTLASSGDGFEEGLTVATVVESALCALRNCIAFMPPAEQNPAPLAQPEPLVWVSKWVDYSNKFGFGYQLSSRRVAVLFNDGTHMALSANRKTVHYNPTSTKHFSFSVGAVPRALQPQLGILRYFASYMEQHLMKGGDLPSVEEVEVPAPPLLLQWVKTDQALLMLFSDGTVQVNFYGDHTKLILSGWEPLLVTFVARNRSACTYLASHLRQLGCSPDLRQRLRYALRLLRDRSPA
Protocol: as §1

Panc 02.03 = experiment: Cell viability (SRB), Panc 02.03; type: cell-based; details: Homo sapiens, Panc 02.03, 72 h
Protocol: (§2) SW48 Parental, SW48 G12D, Panc-1, HPAF-II, Panc 02.03 and Panc 05.04 cell lines were seeded overnight at 5000 cells per well in a 96 well plate in recommended media (ATCC). Compounds were added the following day and viability was measured at 72h using the sulforhodamine B (SRB) colorimetric assay as follows. Cells were fixed by replacing media with 1% v/v Trichloroacetic Acid (TCA) (Sigma-Aldrich) at 4°C and incubated for 1h also at 4°C. Wells were washed thoroughly with copious amounts of deionised water before staining with Sulforhodamine B (SRB) (Sigma-Aldrich) solution (0.057% w/v in 1% v/v Acetic Acid (VWR)) for 30 min. Stain was aspirated and wells washed with several changes of 1% v/v Acetic Acid until unbound stain was removed, before air-drying. Bound stain was solubilized with 100μl / well 10mM Tris (pH 8.0) (Trizma Base (121.1) Sigma-Aldrich) with agitation for 10 min. Fluorescence intensity was recorded at Ex540nm / Em590nm using a BMG Pherastar Plus plate reader ([Vichai and Kirtikara, 2006]).
Pancreatic organoids were extracted and cultured as detailed above ([Boj et al., 2015]). In brief, pancreatic organoids were seeded at 600 cells per well in a 96 well plate and allowed to grow for 7 days with media replenishment on the 3rd day. Full-grown organoids were then treated with compounds for 72h and viability determined using CellTitre Glo 3D assay (Promega). For viability assays with c-MET siRNA, cells were reverse transfected in a 6 cm dish using Dharmafect 1 (GE Dharmacon) per manufacturer’s instructions. On the following day, cells were trypsinised and plated onto 96 well plates or 6 well plates. The 96 well plates were treated with a dose range of compounds or DMSO, and viability was determined via SRB colorimetric assay. […]
Cells were reverse-transfected with 50nM (SW48 parental, SW48 KRAS G12D and Panc-1) or 25nM (HeLa Flp-In T-REx parental cells) siRNA using Dharmafect (GE Dharmacon) as manufacturer’s recommendations. […] Viability was assessed after 72 hrs, with the SRB colorimetric assay. Knockdown efficiencies were determined by Western blot or RT-qPCR. […]

parental HeLa cells = experiment: Live-cell imaging of cell fate, parental HeLa; type: cell-based, human; details: wild-type HeLa
Protocol: Five x10^4 cells were seeded on each well of 4-well coverglass Lab-Tek chambers in a volume of 800 μl. HeLa-G12D cells were induced with Doxycycline (Dox) 24h before seeding and kept in Dox for the rest of the experiment.
For live cell imaging analysis image sequences were viewed using ImageJ software and cell fate was analysed manually. Time spent in mitosis for different groups was compared with a Kruskal-Wallis test and Dunn's multiple comparison correction.

HPAF II = experiment: Cell viability (SRB), HPAF II; type: cell-based; details: Homo sapiens, 72 h
Protocol: as §2, with “Stain was aspirated and wells washed with several changes of 1% v/v Acetic Acid until unbound stain was removed, before air-drying. Bound stain was solubilized with 100μl / well 10mM Tris (pH 8.0) (Trizma Base (121.1) Sigma-Aldrich) with agitation for 10 min.” left out
Pancreatic organoids were extracted and cultured as detailed above ([Boj et al., 2015]). […] Full-grown organoids were then treated with compounds for 72h and viability determined using CellTitre Glo 3D assay (Promega). […] The 96 well plates were treated with a dose range of compounds or DMSO, and viability was determined via SRB colorimetric assay. […]
Cells were reverse-transfected with 50nM (SW48 parental, SW48 KRAS G12D and Panc-1) or 25nM (HeLa Flp-In T-REx parental cells) siRNA using Dharmafect (GE Dharmacon) as manufacturer’s recommendations. […] Viability was assessed after 72 hrs, with the SRB colorimetric assay. […]

U2OS cells = experiment: Quantification of mitotic phenotypes by immunofluorescence; type: cell-based, human; details: 12.5 μM
Protocol: Cells were plated on glass coverslips and incubated overnight. Cells were treated with compound diluted in medium for 24hrs. Medium was then removed and cells fixed in 20mM PIPES pH8, 20mM HEPES pH8, 5mM EGTA, 2mM MgCl, 0.2% Triton X-100 and 3.7% formaldehyde. Cells were washed in PBS containing 0.1% Tween-20 then incubated with anti-alpha tubulin antibody (Santa Cruz sc-32293) and anti-CREST antibody (Europa 90C-CS1058). Cells were washed then incubated with Alexa Fluor 568 labelled goat anti-mouse IgG (Invitrogen A11031) or Alexa Fluor 633 labelled goat anti-mouse IgG (Invitrogen A21052) and Alexa Fluor 488 goat anti-human IgG (Invitrogen A11013). Cells were washed and then mounted on glass slides in Vectashield mounting medium containing DAPI.

SMILES: CN(C)CCNC(=O)c1ccc(-c2ccc(-c3ccc(Cl)cc3)n2-c2ccccc2C(F)(F)F)cc1 [Poloppin-II]
- bioavailability ([1]; mouse, plasma, 10 mg/kg oral): > 90%
- clearance ([1]; mouse, plasma, oral, 10 mg/kg, read-out: calculated clearance): 17 mL/min/kg
- Vd ([1]; mouse, plasma, oral, 10 mg/kg, read-out: volume of distribution): 23 L/kg
- half-life ([1]; mouse, plasma, per oral, 10 mg/kg): 15 h
- time for which plasma concentration >100 nM is maintained ([1]; single oral dose of 10 mg/kg): > 24 h
- in vivo plasma concentration maintained ([1]; single oral dose of 10 mg/kg, for >24 hr): > 100 nM

SMILES: O=C(O)CCc1ccc(-c2ccc(Br)cc2)n1-c1ccccc1C(F)(F)F [Poloppin]
- thermal stability of NanoLuc-PLK2 [2]: increases the thermal stability
- thermal stability of NanoLuc-PLK3 [3]: increases the thermal stability
- EC50 (Panc 02.03; read-out: EC50, % survival, Panc 02.03, All Stars control siRNA, 72 h): 47.1 ± 1.03 µM
- EC50 (Panc 02.03; read-out: EC50, % survival, Panc 02.03, siMET, 72 h): 8.7 ± 1.16 µM
- average time in mitosis (parental HeLa cells; Poloppin at GI50 dose (10μM), 60 min without): 100 min
- frequency of aneuploid divisions (parental HeLa cells; Poloppin at GI50 dose, 4% after DMSO): 38%
- EC50 (HPAF II; read-out: EC50, % survival, HPAF II, All Stars control siRNA, 72 h): 12.4 ± 1.08 µM
- EC50 (HPAF II; read-out: EC50, % survival, HPAF II, siMET, 72 h): 5.6 ± 1.05 µM
- cells with normal metaphase chromosome alignment (U2OS cells): < 5%
